The results in this text go back to article PMC4775997, “Imidazopyridazine Inhibitors of Plasmodium falciparum Calcium-Dependent Protein Kinase 1 Also Target Cyclic GMP-Dependent Protein Kinase and Heat Shock Protein 90 To Kill the Parasite at Different Stages of Intracellular Development” (Antimicrobial Agents and Chemotherapy, 2016).

Each structure is given as a SMILES string. Like-named read-outs stand apart in the source and are kept apart here. Where only a bound is given, the exact number is not on record here.

For one test, the target named is T1, PfPKG (Plasmodium falciparum, UniProt Q8I719).
T1 construct: plasmids (pTrcHisC) encoding full-length PfPKG and PfPKG T618Q with N-terminal His tags; His tag (N); made in house; host or cells: E. coli Rosetta2(DE3)
Briefly: Microfluidic fluorescent shift assay of cGMP-dependent protein kinase activity. Format: biochemical. Conditions: Table S2; read-out: Enzyme inhibition IC50, PKG.

Test [1] deals with P. falciparum 3D7. Briefly: SYBR green I growth assay, wild-type parasites. Format: cell-based, Plasmodium falciparum. The settings on record: for EC5048/EC5096 ratio: Table 1.
Another test has as its target CDPK1 (Plasmodium falciparum, UniProt P62344). Briefly: biochemical. Format: biochemical. Conditions: read-out: Enzyme inhibition IC50, CDPK1.
Another test addresses T2, PfPKG T618Q (Plasmodium falciparum, UniProt Q8I719, T618Q).
T2 construct: plasmids (pTrcHisC) encoding full-length PfPKG and PfPKG T618Q with N-terminal His tags; His tag (N); made in house; host or cells: E. coli Rosetta2(DE3)
Briefly: biochemical. Conditions: Table S2; for IC50: read-out: Enzyme inhibition IC50, PKG T618Q. Format: biochemical.

Test [2] concerns P. falciparum 3D7. Briefly: Microscopic examination of Giemsa-stained smears (stage of action). Conditions: for Stage of action (before or after DNA synthesis): Table S1, ring-stage parasites, 10x EC50 for 48 h; for Stage of action: ring stage parasites treated with 10 times the 96-h EC50 for 48 h.
A further test has as its system 3D7 PKG T618Q. Briefly: microbe, parasite or virus in culture. Conditions: for 3D7 PKG T618Q/3D7 EC50 ratio / EC50: Table 2; for EC50: SYBR green I, 96 h, single experiment, or mean (SD) of duplicate assays, read-out: Parasite inhibition EC50, 3D7 PKG T618Q; for Ratio 3D7 PKG T618Q/3D7: Table S2. Format: cell-based, Plasmodium falciparum.
The mark [3] stands for this setting: SYBR green I, 48 h incubation, mean of three independent experiments (SD), read-out: EC50 after treatment for 48 h.
The mark [4] stands for this setting: SYBR green I, 96 h incubation, mean of three independent experiments (SD), read-out: EC50 after treatment for 96 h.
Where [5] appears, read: Table S1, single experiment with duplicate samples, or mean of triplicate experiments (SD), read-out: EC50 96 hours.
Setting [6] is: Table S1, single experiment with duplicate samples, or mean of triplicate experiments (SD), read-out: EC50 48 hours.
The mark [7] stands for this setting: Table 2, SYBR green I, 96 h, single experiment, or mean (SD) of duplicate assays, read-out: Parasite inhibition EC50, 3D7.

Sequence of CDPK1 (P62344 whole entry): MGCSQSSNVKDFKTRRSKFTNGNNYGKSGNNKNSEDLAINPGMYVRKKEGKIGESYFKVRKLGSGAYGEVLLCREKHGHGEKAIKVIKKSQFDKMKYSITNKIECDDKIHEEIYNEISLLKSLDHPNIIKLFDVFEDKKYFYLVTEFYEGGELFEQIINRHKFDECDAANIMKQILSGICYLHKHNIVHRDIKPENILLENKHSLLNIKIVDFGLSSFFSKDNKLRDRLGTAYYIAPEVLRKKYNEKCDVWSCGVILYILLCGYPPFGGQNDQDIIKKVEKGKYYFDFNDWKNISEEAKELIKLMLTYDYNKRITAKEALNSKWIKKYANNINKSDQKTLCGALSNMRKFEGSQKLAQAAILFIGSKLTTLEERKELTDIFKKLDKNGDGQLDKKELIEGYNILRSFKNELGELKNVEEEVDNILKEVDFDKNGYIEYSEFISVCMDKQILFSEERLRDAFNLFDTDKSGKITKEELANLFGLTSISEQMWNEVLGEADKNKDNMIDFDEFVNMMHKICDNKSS
T2 sequence (Q8I719 whole entry T618Q): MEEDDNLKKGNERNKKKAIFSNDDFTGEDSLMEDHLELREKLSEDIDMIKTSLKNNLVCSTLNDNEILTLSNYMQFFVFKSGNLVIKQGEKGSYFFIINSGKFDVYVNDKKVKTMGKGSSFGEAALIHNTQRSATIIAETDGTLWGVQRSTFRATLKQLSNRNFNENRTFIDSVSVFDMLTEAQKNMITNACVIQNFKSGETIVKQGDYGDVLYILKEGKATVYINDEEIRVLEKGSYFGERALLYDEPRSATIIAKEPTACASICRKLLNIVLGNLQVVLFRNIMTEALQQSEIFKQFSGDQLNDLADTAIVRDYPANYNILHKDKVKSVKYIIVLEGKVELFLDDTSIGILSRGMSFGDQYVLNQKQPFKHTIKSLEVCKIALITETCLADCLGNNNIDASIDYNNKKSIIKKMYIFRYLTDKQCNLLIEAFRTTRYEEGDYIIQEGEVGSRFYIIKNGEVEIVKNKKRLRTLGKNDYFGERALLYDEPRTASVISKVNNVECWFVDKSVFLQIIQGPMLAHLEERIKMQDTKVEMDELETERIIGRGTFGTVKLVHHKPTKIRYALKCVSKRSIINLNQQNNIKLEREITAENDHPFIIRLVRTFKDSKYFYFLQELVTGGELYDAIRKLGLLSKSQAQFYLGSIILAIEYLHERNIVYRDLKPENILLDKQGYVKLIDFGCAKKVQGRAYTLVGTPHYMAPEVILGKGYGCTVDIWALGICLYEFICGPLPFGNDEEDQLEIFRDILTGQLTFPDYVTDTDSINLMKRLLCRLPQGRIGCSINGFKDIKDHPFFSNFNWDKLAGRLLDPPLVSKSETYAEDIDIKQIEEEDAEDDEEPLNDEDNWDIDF

In general, IC50 refers to the point on the concentration scale where inhibition reaches its midpoint. Broadly, the EC50 is the concentration giving half of the maximal effect. For `CN(C)C1CCN(c2ccc3ncc(-c4cnc(Nc5ncccc5F)nc4)n3n2)C1` (stereo not shown) [Compound 35], the IC50 at PfPKG worked out at 0.05 µM; on CDPK1 (Table S2) it was 0.017 µM; at PfPKG T618Q, 528 µM. The EC50 was greater than 1000 µM in the test on P. falciparum 3D7 [1] (setting [3]), 0.809 µM in the test with P. falciparum 3D7 [1] (setting [4]) and 0.81 µM in the test with P. falciparum 3D7 [1] (setting [5]). Also, in the test on P. falciparum 3D7 [1], the EC5048/EC5096 ratio is >1,000. Further, the “Selectivity PKG T618Q/PKG” value on PfPKG T618Q is listed as 10653. Moreover, in the test with P. falciparum 3D7 [2], the “Stage of action (before or after DNA synthesis)” value is given as “late schizont”. Besides, the Stage of action entry in the test with P. falciparum 3D7 [2] is “Late schizont”.

As for `CC(C)CCNc1ncc(-c2cnc3ccc(NC4CCN(C)C4)nn23)cn1` (stereo not shown) [Compound 31], the values for the IC50 on PfPKG, on CDPK1 (Table S2) and on PfPKG T618Q were 0.287 µM, 0.093 µM and 5.95 µM, respectively. For the same compound, the half-maximal effective concentration (EC50) worked out at 1.66 µM in the test with P. falciparum 3D7 [1] (setting [3]), 0.238 µM in the test with P. falciparum 3D7 [1] (setting [4]), 1.66 µM with P. falciparum 3D7 [1] (setting [6]) and 0.24 µM in the test on P. falciparum 3D7 [1] (setting [5]). The EC5048/EC5096 ratio in the test on P. falciparum 3D7 [1] turned out to be 7.0. Further, the “ratio EC5048:EC5096” value in the test with P. falciparum 3D7 [1] (Table S1) stood at 7.0. The “Selectivity PKG T618Q/PKG” value at PfPKG T618Q turned out to be 21. Also, the “Stage of action (before or after DNA synthesis)” value in the test with P. falciparum 3D7 [2] is listed as “late schizont”. In addition, the Stage of action result with P. falciparum 3D7 [2] is given as “Late schizont”.

A word on the EC90: it is the point of the concentration-response curve where the effect stands at 90%. Read a low EC90 as greater potency. `CC(C)CNc1ncc(-c2cnc3ccc(NC4CCN(C)CC4)nn23)cn1` [Compound 44] returned an EC90 in the test on P. falciparum 3D7 [1] (3D7 parasites) of 0.65 µM. The EC50 in the test with P. falciparum 3D7 [1] (setting [7]) was found to be 0.236 µM. The IC50 on CDPK1 (Table 2) turned out to be 0.065 µM. In the test on 3D7 PKG T618Q, the “3D7 PKG T618Q/3D7 EC50 ratio” value turned out to be 2.0, the EC50 amounted to 0.477 µM and the “Ratio 3D7 PKG T618Q/3D7” value came to 2.

On to `CC(C)CCNc1ccc(-c2cnc3ccc(NC4CCNCC4)nn23)cn1` [Compound 11], for which the figures for the IC50 at PfPKG, at CDPK1 (Table S2) and on PfPKG T618Q were 0.256 µM, 0.015 µM and 256 µM, respectively. Besides, the “ratio EC5048:EC5096” value in the test on P. falciparum 3D7 [1] (Table S1) was found to be 1.6. The EC50 stood at 0.96 µM in the test with P. falciparum 3D7 [1] (setting [6]) and 0.6 µM with P. falciparum 3D7 [1] (setting [5]). At PfPKG T618Q, the “Selectivity PKG T618Q/PKG” value came to 1000.

In the case of `Fc1cccnc1Nc1ccc(-c2cnc3ccc(NC4CCNCC4)nn23)cc1` [Compound 13], the IC50 on PfPKG turned out to be 0.162 µM; at CDPK1 (Table S2) it was 0.014 µM; on PfPKG T618Q it was 3.68 µM. Besides, the “ratio EC5048:EC5096” value with P. falciparum 3D7 [1] (Table S1) is on record as 1.7. Besides, the EC50 in the test with P. falciparum 3D7 [1] (setting [6]) was 1.25 µM; in the test with P. falciparum 3D7 [1] (setting [5]), 0.76 µM. For the same compound, the “Selectivity PKG T618Q/PKG” value at PfPKG T618Q is reported as 23.

For `Fc1cccnc1Nc1ncc(-c2cnc3ccc(NC4CCNCC4)nn23)cn1` [Compound 32], the 50% inhibitory concentration (IC50) turned out to be 0.007 µM at PfPKG, 0.01 µM at CDPK1 (Table S2) and 6.16 µM on PfPKG T618Q. Moreover, the “ratio EC5048:EC5096” value in the test with P. falciparum 3D7 [1] (Table S1) is on record as 16.6. For the same compound, the figures for the concentration giving a half-maximal response (EC50) with P. falciparum 3D7 [1] (setting [6]) and in the test on P. falciparum 3D7 [1] (setting [5]) were 1.79 µM and 0.11 µM, respectively. Besides, the “Selectivity PKG T618Q/PKG” value at PfPKG T618Q worked out at 931.

As to `CN1CCC(Nc2ccc3ncc(-c4cnc(Nc5cnccn5)c(F)c4)n3n2)CC1` [Compound 15], the IC50 was found to be 0.249 µM at PfPKG, 0.02 µM at CDPK1 (Table S2) and 51.3 µM on PfPKG T618Q. In addition, the “ratio EC5048:EC5096” value in the test on P. falciparum 3D7 [1] (Table S1) was 1.9. In addition, the concentration for a half-maximal effect (EC50) in the test with P. falciparum 3D7 [1] (setting [6]) worked out at 1.74 µM; with P. falciparum 3D7 [1] (setting [5]), 0.96 µM. The “Selectivity PKG T618Q/PKG” value on PfPKG T618Q worked out at 206.

In the case of `CNc1ccc2ncc(-c3ccc(NCCC(C)C)nc3)n2n1` [Compound 42], the EC50 in the test on P. falciparum 3D7 [1] (setting [7]) was 0.836 µM. For the same compound, on CDPK1 (Table 2), the IC50 was found to be 0.081 µM. In the test with 3D7 PKG T618Q, the “3D7 PKG T618Q/3D7 EC50 ratio” value is reported as 1.5, the EC50 worked out at 1.23 µM and the “Ratio 3D7 PKG T618Q/3D7” value is reported as 1.
